Data set [1] deals with endogenous HOPS subunits (Vps41, Vps11, Vps39). Briefly: Proximity ligation assay (in situ co-IP) of Arl8b with HOPS subunits. The class given is cell-based, rat. The settings on record: mCherry-tagged Arl8b. As to the method:
(§1) In certain non-limiting examples described herein, McA-RH7777 cells stably expressing human apoB-100 and human apoC-III (designated A18-C3) were used for the studies. […] In addition, these studies, particularly those concerning EPA- or DHA-triggered lysosomal motility and CLD degradation, were also performed using primary rat hepatocytes. Transfection of plasmids encoding proteins of interest, or transfection of siRNA specific for silencing target gene expression, was achieved using the FuGENE HP Extreme reagent (Roche). Representative gene silencing siRNA sequences, which are not meant to be limiting, are described in Table 1, and plasmids encoding proteins of interest are described in Table 2. The effectiveness of siRNA silencing was verified by Western-blotting of cellular content of the target proteins, and by intracellular localization assay using siRNA-Tracker (Mirus Bioscience). Twenty-four h after plasmid transfection, or 48 h after siRNA transfection, the cells were cultured in lipid-rich media containing fetal bovine serum (20%) and OA (0.4 mM). The lipid-laden cells were switched to fresh media supplemented with OA or EPA (0.4 mM). In live imaging experiments, LipidTOX Red (Life Technologies) and LysoTracker (Life Technologies) were added to media prior to EPA treatment, to visualize lipid droplets and lysosomes, respectively. For visualizing peroxisomes, Peroxisome-GFP (Invitrogen) was introduced to the cells 24 h prior to experiments. Quantification of cell lipid contents was achieved either by direct mass measurement (HPTLC) and counting the number of lipid droplets using Image J Lipid Droplet Counter Plug-In, or indirectly by Western blot analysis of cellular content of ADRP. Secretion of apoB and TG-rich lipoprotein was determined by Western blot analysis and metabolic labeling. Mitochondrial β-oxidation was measured using MitoSOX Red (Life Technologies) in situ. Autophagic flux was determined by using Cyto-ID assay (Enzo Life Science) and by monitoring GFP-LC3 clustering in situ. Interaction of Arl8b and subunits of the HOPS complex was determined in situ by the proximity ligation assay (Olink Biosience). Cytoplasmic pH was measured using the cytosolic pHrodo indicator reagent (Invitrogen). Live imaging of fluorescent-tagged proteins was performed 1 h post-EPA treatment. Cells were also collected at the time of EPA treatment for transmission EM and tomography, as well as immuno-EM. For movies, cells were imaged at 60 sec intervals every 5 min, for a total of 30 min.
Cells were transfected with plasmids encoding RFP-tagged Arl8b^WT, Arl8b^Q75L, or Arl8b^T34N. The cells were treated with OA for 16 h (baseline condition as control). […] Quantification of signals was done in a total of 50 cells under each condition from 3 independent experiments.

Data set [2] has as its system McA-RH7777 cells (A18-C3). Briefly: Live imaging of lysosomal motility and lysosome-CLD interaction (kiss-and-run). The settings on record: for effect on EPA-triggered lysosomal motility / lysosomal interaction with CLD: cells silenced, transfected or pre-treated (15 min) before EPA. The class given is cell-based, rat. As to the method:
as §1
Cells were grown on 35-mm glass bottom dishes (Ibidi GmbH München, Germany) for 16 h in DMEM supplemented with FBS (20%) and OA (0.4 mM). Cells were imaged using a Zeiss 510 META laser scanning confocal microscope with a heated CO2-controlled stage (5% CO2 at 37° C.). Images were captured at a frame-rate of 30 frame/sec using a 63×. N.A.1.4 objective. Recommended laser lines and filter combinations were used for each dye. For visualization of lipid droplets, lysosomes, mitochondria, and mitochondrial β-oxidation, the respective reagents LipidTOX Red (Invitrogen), LysoTracker (Life Technology), MitoTracker (Life Technology), MitoSox Red (Invitrogen), and Peroxisome-GFP BacMam2.0 (Invitrogen) were introduced into the cells, according to manufacturers' recommendations, prior to EPA treatment.
Cells were cultured with lipid-rich media containing OA (0.4 mM) for 16 h. The lipid-laden cells were switched to fresh media containing EPA (0.4 mM) for 1 h, and the lysosomal movement towards lipid droplets was recorded by time-lapse microscopy. Fluorescent intensity of lysosomal signals at the periphery of selected individual lipid droplet was measured using Image J Live Intensity Profiler Plug-in^31-33 over a period of 40 sec. Quantification for each condition was carried out for 60 individual lipid droplets from three independent experiments. Constant threshold was applied to all of the images in each experiment.

For data set [3], the system named is McA-RH7777 cells stably expressing human apoB-100 and human apoC-III (A18-C3). The data set is classed as cell-based. The note with it: for effect on EPA-induced lipid degradation (CLD turnover): cells silenced, transfected or pre-treated, then EPA 0.4 mM, 6 h; for effect on lipid degradation when co-expressed with Arl8b^WT, Arl8b^Q75L or Arl8b^T34N: co-transfected cells, 6 h post-OA or -EPA. Here is the method:
as §1
The A18-C3 cells were cultured in DMEM (Invitrogen) supplemented with fetal bovine serum (20%), penicillin (50 U/mL), streptomycin (50 μg/mL, Invitrogen) and Geneticin/G418 (500 μg/mL, Gibco) at 37° C. in 5% CO2. Transfection was conducted when cells were 60-70% confluence. Appropriate plasmids were mixed with FuGENE HP extreme reagent (Roche Diagnostic), according to manufacturer's protocol, and incubated for 30 min. Twenty-four h after transfection, cells were switched to lipid-rich media containing OA (0.4 mM) for additional 16 h prior to imaging and biochemical analysis. In silencing experiments, appropriate siRNAs were transfected into cells using the X-treme GENE siRNA regent (Roche Diagnostic). Localization of siRNA in transfected cells in situ was carried out using the Cy5 Label IT-siRNA Tracker (Minis Bioscience #7213) according to manufacturer's protocol. Forty-eight h after transfection, cells were switched to lipid-rich media containing OA (0.4 mM) for additional 16 h prior to imaging and biochemical analysis.
Quantification of lipid droplets was carried out using confocal and differential interface contrast (DIC) microscopy. Lipid droplets were stained with LipidTOX Red (Invitrogen) before adding OA or EPA. All images were visualized using a 63× oil immersion objective lens. Z-series stacks were acquired with 0.2 μm steps. […]

Another data set concerns hepatic cells. The experiment in a line: Hepatic glucose uptake (fluorescent 2-NBDG assay). The class given is cell-based. The settings on record: transfected cells treated with EPA.
Data set [4] deals with McA-RH7777 cells (A18-C3). The experiment in a line: Immuno-EM of Arl8b organellar association. The settings on record: RFP-tagged Arl8b in transfected cells, 1 h post-EPA. The class given is cell-based, rat. Here is the method:
For immunogold labeling, pellets of cells cultured in media containing OA or EPA (0.4 mM) were fixed with 0.5% glutaraldehyde and 4% paraformaldehyde in 0.1 M phosphate buffer (pH 7.4) and dehydrated through a series of graded ethanol dilutions, and embedded in LR White acrylic resin (London Resin Company). Ultrathin sections (80 nm) were placed on Formvar-coated nickel grids. For post-embedding immunolabeling, the sections were incubated with an anti-Arl8b antibody (Fitzgerald) for 1 h. For ^RFPArl8b-transfected cells, that primary antibody used was anti-RFP (Abcam). After washing with 0.2 M sodium cacodylate buffer containing 0.1% calcium chloride, pH 7.4, the samples were incubated with the secondary antibody conjugated with 10-nm gold particles. To increase contrast, the ultrathin sections were stained with 2% uranyl acetate for 6 min and Reynold's lead for 5 min. The grids were examined with a Tecnai 12 120 kV TEM as described above.

For a further data set, the system named is C57BL/6 mice. The experiment in a line: Diet-induced fatty liver mouse model (high-fat-high-sucrose diet), Oil Red O. The data set is classed as in vivo. The note with it: adenovirus injected 1 day before HFHS diet for up to 4 days. Here is the method: The respective Arl8b^T34N (DN), Arl8b^Q75L (DA), and Arl8b^WT constructs, along with empty virus (EV; control treatment) were injected into mice 1 day prior to feeding with a high fat diet for up to 4 days. The livers were stained with Oil Red O to determine the lipid contents, under the expression of various forms of Arl8b.
In these experiments, C57BL/6 mice were injected with adenovirus encoding different variants, namely Arl8b^T34N, Arl8b^Q75L, and Arl8b^WT. In these mice, expression of Arl8b proteins encoded by the adenoviral vectors lasts at least a few weeks. Thus, 1-day after viral injection, the mice were placed on a high-fat-high-sucrose (HFHS) diet for up to 4 days.

The record followed here is patent US11298402B2, “Lysosomal degradation of lipids and proteins and method of use thereof” (University of Ottawa, priority 2015, dated 2022).

On to “Arl8b^WT: wild-type ADP-ribosylation factor-like protein 8b, overexpressed from plasmid or adenovirus; tagged forms used”, for which the “binding to endogenous HOPS subunits” value was “binds predominately to endogenous Vps41 and to a lesser extent Vps11” in data set [1] (cells treated with OA); “binds to all three Vps proteins examined” in data set [1] (upon addition of EPA). Further, in data set [2] (GFP-tagged Arl8b-expressing cells, EPA), the “duration of association between lysosomes and CLD (the on phase)” value was “approximately 15 seconds”. The “effect on EPA-triggered lysosomal motility / lysosomal interaction with CLD” value in data set [2] is reported as “does not affect lysosomal motility”. Besides, the “effect on EPA-induced lipid degradation (CLD turnover)” value (“effect … (CLD turnover)” below) in data set [3] is on record as “An increase in lipid degradation”. In the data set on hepatic cells, the glucose uptake entry is “Low level of glucose uptake”. Besides, the “organellar association (lysosome vs CLD)” value in data set [4] is “dual presentation between lysosomes and CLD”. Also, the “liver steatosis (Oil Red O)” value in the data set with C57BL/6 mice is on record as “steatosis became apparent”.

B1: Vps39: HOPS subunit overexpressed from plasmid (GFP-tagged) (protein, UniProt Q96JC1 1-886, looked up)
Vam6/Vps39-like protein: MHDAFEPVPILEKLPLQIDCLAAWEEWLLVGTKQGHLLLYRIRKDVVPADVASPESGSCNRFEVTLEKSNKNFSKKIQQIHVVSQFKILVSLLENNIYVHDLLTFQQITTVSKAKGASLFTCDLQHTETGEEVLRMCVAVKKKLQLYFWKDREFHELQGDFSVPDVPKSMAWCENSICVGFKRDYYLIRVDGKGSIKELFPTGKQLEPLVAPLADGKVAVGQDDLTVVLNEEGICTQKCALNWTDIPVAMEHQPPYIIAVLPRYVEIRTFEPRLLVQSIELQRPRFITSGGSNIIYVASNHFVWRLIPVPMATQIQQLLQDKQFELALQLAEMKDDSDSEKQQQIHHIKNLYAFNLFCQKRFDESMQVFAKLGTDPTHVMGLYPDLLPTDYRKQLQYPNPLPVLSGAELEKAHLALIDYLTQKRSQLVKKLNDSDHQSSTSPLMEGTPTIKSKKKLLQIIDTTLLKCYLHTNVALVAPLLRLENNHCHIEESEHVLKKAHKYSELIILYEKKGLHEKALQVLVDQSKKANSPLKGHERTVQYLQHLGTENLHLIFSYSVWVLRDFPEDGLKIFTEDLPEVESLPRDRVLGFLIENFKGLAIPYLEHIIHVWEETGSRFHNCLIQLYCEKVQGLMKEYLLSFPAGKTPVPAGEEEGELGEYRQKLLMFLEISSYYDPGRLICDFPFDGLLEERALLLGRMGKHEQALFIYVHILKDTRMAEEYCHKHYDRNKDGNKDVYLSLLRMYLSPPSIHCLGPIKLELLEPKANLQAALQVLELHHSKLDTTKALNLLPANTQINDIRIFLEKVLEENAQKKRFNQVLKNLLHAEFLRVQEERILHQQVKCIITEEKVCMVCKKKIGNSAFARYPNGVVVHYFCSKEVNPADT
modifications: GFP tag
B1: in data set [2], the “effect on EPA-triggered lysosomal motility / lysosomal interaction with CLD” value was “does not interfere with termination of lysosomal lipid droplet engulfment process and dissociation from CLD”. In addition, in data set [3], the “effect … (CLD turnover)” value is “promotes the process” and the “effect on lipid degradation when co-expressed with Arl8b^WT, Arl8b^Q75L or Arl8b^T34N” value is “promotes the process”.

B2: Vps11: HOPS subunit overexpressed from plasmid (GFP-tagged) (protein)
chain: AAYLQWRRFVFFEKELVKEPLGNDGATPGAAPTSGPTASKFLCLPPGITVCDSGRGSLVFGDMEGQIWFLPRSLQLTGFQAYKLRVTHLYQLKQHNILASVGEDEEGINPLVKIWNLEKRDGGNPLCTRILPAIPGTEPTVVSCLTVHENLNFMAIGFTDGSVTLNKGDITRDRHSKTQILHKGSYPVTGLAFRQAGKTTHLFVVTTENVQSYIVSGKDYPRVELDTHGCGLRCSALSDPSQDLQFIVAGDECVYLYQPDERGPCFAFEGHKLIAHWFRGYLVIVSRDRKVSPKSEFTSRDSQNSDKQILNIYDLCNKFIAYSAVFEDVVDVLAEWGSLYVLTRDGRVHALQEKDTQTKLEMLFKKNLFEMAINLAKSQHLDSDGLAQIFMQYGDHLYSKGNHDGAVQQYIRTIGKLEPSYVIRKFLDAQRIHNLTAYLQTLHRQSLANADHTTLLLNCYTKLKDSSKLEEFIKTKSESEVHFDVETAIKVLRQAGYYSHALYLAENHAHHEWYLKIQLEDIKNYQEALRYIGKLPFEQAESNMKRYGKILMHHIPEQTTQLLKGLCTDYRPSLEGRGDREFPSCRANSEEFIPIFANNPRELKAFLEHMSEVQPDSPQGIYDTLLELRLQNWAHEKDPQAKEKLHAEAISLLKSGRFCDVFDKALVLCQMHDFQDGVLYLYEQGKLFQQIMHYHMQHEQYRQVIAVCERHGEQEPSLWEQALSYFARKEEDCKEYVAAVLRHIENKSLMPPLLVVQTLAHNSTATLSIIRDYLVQKLQKQSQQIAQDELRVRRYREETTRIRQEIQELKASPKIFQKTKCSICNSALELPSVHFLCGHSFHQHCFESYSESDADCPTCLPENRKVMDMIRAQEQKRDLHDQFQHQLKCSNDSFSVIADYFGRGVFNKLTLLTDPPTARLTPSLEAGLQRDLLMHSRRGT
Take B2: the “effect on EPA-triggered lysosomal motility / lysosomal interaction with CLD” value in data set [2] is on record as “enhanced lysosomal-CLD interaction”. Further, in data set [3], the “effect … (CLD turnover)” value is “block lipid degradation” and the “effect on lipid degradation when co-expressed with Arl8b^WT, Arl8b^Q75L or Arl8b^T34N” value is reported as “invariably blocks lipid degradation”.
